Assay results reported in patent US12091426B2, “Bifunctional degraders of hematopoietic progenitor kinase and therapeutic uses thereof” (Nurix Therapeutics, Inc., priority 2021, dated 2024).

Target: T1, HPK1 (Homo sapiens, UniProt Q92918)
T1 construct: A HiBiT tag was introduced by CRISPR on the N terminus of HPK1 in Jurkat cells; host or cells: Jurkat cells (ATCC TIB-152), monoclonal line with CRISPR knock-in of HiBiT at the endogenous HPK1 locus
Test: HPK1 Cellular HiBit Degradation Assay
Format: cell-based
Settings: HiBiT HPK1 Jurkat cells, 24 hrs; for DC50: concentration at which 50% of HPK1 was remaining, read-out: DC50 Category; for Dmax: Jurkat, read-out: Dmax Category
In short: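 Degraders are dosed in an 11-point series (10 uM to 0.1 nM final) onto Jurkat cells carrying an N-terminal HiBiT tag on endogenous HPK1. After 24 hrs at 37° C, lysis-based HiBiT luminescence quantifies remaining HPK1 relative to vehicle, and curve fitting gives DC50 and Dmax.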

[1] = maximum degradation vs DMSO vehicle control

T1 sequence (Q92918 whole entry): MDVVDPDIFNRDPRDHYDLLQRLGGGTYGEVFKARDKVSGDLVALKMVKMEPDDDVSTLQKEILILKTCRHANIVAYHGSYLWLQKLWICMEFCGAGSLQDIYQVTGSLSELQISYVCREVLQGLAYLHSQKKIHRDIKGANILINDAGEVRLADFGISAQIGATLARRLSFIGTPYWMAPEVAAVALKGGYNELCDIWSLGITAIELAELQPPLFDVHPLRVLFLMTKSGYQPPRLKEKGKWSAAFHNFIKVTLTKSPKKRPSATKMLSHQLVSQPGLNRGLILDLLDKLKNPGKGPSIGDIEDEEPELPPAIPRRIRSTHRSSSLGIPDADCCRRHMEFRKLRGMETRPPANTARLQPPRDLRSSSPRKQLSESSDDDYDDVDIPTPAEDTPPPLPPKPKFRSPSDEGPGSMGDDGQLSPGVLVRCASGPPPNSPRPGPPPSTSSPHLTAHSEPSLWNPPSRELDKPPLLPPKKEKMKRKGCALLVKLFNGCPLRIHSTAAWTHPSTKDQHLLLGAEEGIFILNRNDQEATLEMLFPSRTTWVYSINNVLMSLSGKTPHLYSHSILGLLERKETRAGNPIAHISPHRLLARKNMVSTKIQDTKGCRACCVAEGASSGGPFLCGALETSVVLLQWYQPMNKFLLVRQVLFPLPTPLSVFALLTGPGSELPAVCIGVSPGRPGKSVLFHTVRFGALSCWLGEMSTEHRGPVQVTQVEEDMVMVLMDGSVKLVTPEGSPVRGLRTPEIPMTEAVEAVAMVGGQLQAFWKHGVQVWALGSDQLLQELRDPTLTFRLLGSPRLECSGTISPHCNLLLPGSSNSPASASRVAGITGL

CC(C)n1cnc2cc(-c3ccc4c(c3)N([C@H]3C[C@@H](N(C)C)C3)C(=O)C43CCN(C(=O)C4CCN(C(=O)C5CCN(c6ccc(C7CCC(=O)NC7=O)cn6)CC5)CC4)CC3)nc(Nc3ccccc3F)c21 (mixture of isomers) [Example 75, (3RS)-3-[6-(4-{4-[(6-{4-[(2-fluorophenyl)amino]-3-(propan-2-yl)-3H-imidazo[4,5-c]pyridin-6-yl}-2-oxo-1-[(1S,3S)-3-(dimethylamino)cyclobutyl]-1,2-dihydrospiro[indole-3,4′-piperidin]-1′-yl)carbonyl]piperidine-1-carbonyl}piperidin-1-yl)pyridin-3-yl]piperidine-2,6-dione]
DC50: 100 to 500 nM
Dmax [1]: 70 to 85%

Cc1cc(F)c(Nc2nc(-c3ccc4c(c3)N([C@H]3C[C@@H](N5CCCCC5)C3)C(=O)C43CCN(C(=O)CC4CCN(C(=O)C5CCN(C(=O)CNc6cccc7c6C(=O)N(C6CCC(=O)NC6=O)C7=O)CC5)CC4)CC3)cc3ncn(C(C)C)c23)cc1C(=O)NC(C)C (mixture of isomers) [Example 99, 5-[(6-{1′-[2-(1-{1-[2-({2-[(3RS)-2,6-dioxopiperidin-3-yl]-1,3-dioxo-2,3-dihydro-1H-isoindol-4-yl}amino)acetyl]piperidine-4-carbonyl}piperidin-4-yl)acetyl]-2-oxo-1-[(1S,3S)-3-(piperidin-1-yl)cyclobutyl]-1,2-dihydrospiro[indole-3,4′-piperidin]-6-yl}-3-(propan-2-yl)-3H-imidazo[4,5-c]pyridin-4-yl)amino]-4-fluoro-2-methyl-N-(propan-2-yl)benzamide]
DC50: 500 to 1000 nM
Dmax [1]: 50 to 70%

Cc1cc(C2CCC(=O)NC2=O)ccc1N1CCC(C(=O)N2CCC(C)(C(=O)N3CCC4(CC3)C(=O)N([C@H]3C[C@@H](N5CCCCC5)C3)c3cc(-c5cc6ncn(C(C)C)c6c(NC6CC6)n5)ccc34)CC2)CC1 (mixture of isomers) [Example 226, (3RS)-3-(4-{4-[4-({6-[4-(cyclopropylamino)-3-(propan-2-yl)-3H-imidazo[4,5-c]pyridin-6-yl]-2-oxo-1-[(1S,3S)-3-(piperidin-1-yl)cyclobutyl]-1,2-dihydrospiro[indole-3,4′-piperidin]-1′-yl}carbonyl)-4-methylpiperidine-1-carbonyl]piperidin-1-yl}-3-methylphenyl)piperidine-2,6-dione]
DC50: 100 to 500 nM
Dmax [1]: 70 to 85%

CC(C)n1cnc2cc(-c3ccc4c(c3)N([C@H]3C[C@@H](N5CCCCC5)C3)C(=O)C43CCN(C(=O)C4CN(C(=O)C5CCN(c6ccc(C7CCC(=O)NC7=O)cn6)CC5)CCC45CCC5)CC3)nc(NC3CC3)c21 (mixture of isomers) [Example 287, (3RS)-3-(6-{4-[5-({6-[4-(cyclopropylamino)-3-(propan-2-yl)-3H-imidazo[4,5-c]pyridin-6-yl]-2-oxo-1-[(1S,3S)-3-(piperidin-1-yl)cyclobutyl]-1,2-dihydrospiro[indole-3,4′-piperidin]-1′-yl}carbonyl)-7-azaspiro[3.5]nonane-7-carbonyl]piperidin-1-yl}pyridin-3-yl)piperidine-2,6-dione]
DC50: < 100 nM
Dmax [1]: 70 to 85%

CC(C)n1cnc2cc(-c3ccc4c(c3)N([C@H]3C[C@@H](N5CCCCC5)C3)C(=O)C43CCN(C(=O)C4CCN(C(=O)C5CCN(c6ccc(C7CCC(=O)NC7=O)nc6)CC5)CC4)CC3)nc(Nc3ccncc3F)c21 (mixture of isomers) [Example 82, (3RS)-3-[5-(4-{4-[(6-{4-[(3-fluoropyridin-4-yl)amino]-3-(propan-2-yl)-3H-imidazo[4,5-c]pyridin-6-yl}-2-oxo-1-[(1S,3S)-3-(piperidin-1-yl)cyclobutyl]-1,2-dihydrospiro[indole-3,4′-piperidin]-1′-yl)carbonyl]piperidine-1-carbonyl}piperidin-1-yl)pyridin-2-yl]piperidine-2,6-dione]
DC50: < 100 nM
Dmax [1]: 70 to 85%

CC(C)n1cnc2cc(-c3ccc4c(c3)N([C@H]3C[C@@H](N5CCCCC5)C3)C(=O)C43CCN(C(=O)C45CN(C(=O)C6CCN(c7ccc(C8CCC(=O)NC8=O)cn7)CC6)CC4C5(F)F)CC3)nc(NC3CC3)c21 (mixture of isomers) [Example 281, (3RS)-3-(6-{4-[1-({6-[4-(cyclopropylamino)-3-(propan-2-yl)-3H-imidazo[4,5-c]pyridin-6-yl]-2-oxo-1-[(1S,3S)-3-(piperidin-1-yl)cyclobutyl]-1,2-dihydrospiro[indole-3,4′-piperidin]-1′-yl}carbonyl)-6,6-difluoro-3-azabicyclo[3.1.0]hexane-3-carbonyl]piperidin-1-yl}pyridin-3-yl)piperidine-2,6-dione]
DC50: < 100 nM
Dmax [1]: 50 to 70%

CC(C)n1cnc2cc(-c3ccc4c(c3)N([C@H]3C[C@@H](N5CCCCC5)C3)C(=O)C43CCN(C(=O)C4CCC5(CCC5)N(C(=O)C5CCN(c6ccc(C7CCC(=O)NC7=O)cn6)CC5)C4)CC3)nc(NC3CC3)c21 (mixture of isomers) [Example 290, (3RS)-3-(6-{4-[7-({6-[4-(cyclopropylamino)-3-(propan-2-yl)-3H-imidazo[4,5-c]pyridin-6-yl]-2-oxo-1-[(1S,3S)-3-(piperidin-1-yl)cyclobutyl]-1,2-dihydrospiro[indole-3,4′-piperidin]-1′-yl}carbonyl)-5-azaspiro[3.5]nonane-5-carbonyl]piperidin-1-yl}pyridin-3-yl)piperidine-2,6-dione]
DC50: 100 to 500 nM
Dmax [1]: 70 to 85%

CC(C)n1cnc2cc(-c3ccc4c(c3)N([C@H]3C[C@@H](N5CC6CCC(C5)O6)C3)C(=O)C43CCN(C(=O)C4(C)CCN(C(=O)C5CCN(c6ccc(C7CCC(=O)NC7=O)cc6)CC5)CC4)CC3)nc(NC3CC3)c21 (mixture of isomers) [Example 197]
DC50: 100 to 500 nM
Dmax [1]: 50 to 70%

CC(C)n1cnc2cc(-c3ccc4c(c3)N([C@H]3C[C@@H](N5CCCCC5)C3)C(=O)C43CCN(C(=O)C4(C)CCN(CC5CCN(c6ccc(C7CCC(=O)NC7=O)cn6)CC5)CC4)CC3)nc(NC3CC3)c21 (mixture of isomers) [Example 225, (3RS)-3-[6-(4-{[4-({6-[4-(cyclopropylamino)-3-(propan-2-yl)-3H-imidazo[4,5-c]pyridin-6-yl]-2-oxo-1-[(1S,3S)-3-(piperidin-1-yl)cyclobutyl]-1,2-dihydrospiro[indole-3,4′-piperidin]-1′-yl}carbonyl)-4-methylpiperidin-1-yl]methyl}piperidin-1-yl)pyridin-3-yl]piperidine-2,6-dione]
DC50: 500 to 1000 nM
Dmax [1]: 50 to 70%

CC(C)n1cnc2cc(-c3ccc4c(c3)N([C@H]3C[C@@H](N5CCC(F)CC5)C3)C(=O)C43CCN(C(=O)C4(C)CCN(C(=O)C5CCN(c6ccc(C7CCC(=O)NC7=O)cn6)CC5)CC4)CC3)nc(NC3CC3)c21 (mixture of isomers) [Example 208, (3RS)-3-(6-{4-[4-({6-[4-(cyclopropylamino)-3-(propan-2-yl)-3H-imidazo[4,5-c]pyridin-6-yl]-2-oxo-1-[(1S,3S)-3-(4-fluoropiperidin-1-yl)cyclobutyl]-1,2-dihydrospiro[indole-3,4′-piperidin]-1′-yl}carbonyl)-4-methylpiperidine-1-carbonyl]piperidin-1-yl}pyridin-3-yl)piperidine-2,6-dione]
DC50: 100 to 500 nM
Dmax [1]: 50 to 70%

CC(C)n1cnc2cc(-c3ccc4c(c3)N(C3CC(N5CCCCC5)C3)C(=O)C43CCN(C(=O)C4CCN(C(=O)C5CCN(c6ccc7c(c6)C(=O)N(C6CCC(=O)NC6=O)C7=O)CC5)CC4)CC3)nc(Nc3ccncc3F)c21 (racemic) [Example 88, 2-[(3RS)-2,6-dioxopiperidin-3-yl]-5-(4-{4-[(6-{4-[(3-Fluoropyridin-4-yl)amino]-3-(propan-2-yl)-3H-imidazo[4,5-c]pyridin-6-yl}-2-oxo-1-[(1S,3S)-3-(piperidin-1-yl)cyclobutyl]-1,2-dihydrospiro[indole-3,4′-piperidin]-1′-yl)carbonyl]piperidine-1-carbonyl}piperidin-1-yl)-2,3-dihydro-1H-isoindole-1,3-dione]
DC50: < 100 nM
Dmax Category [1]: C (C: >50%-<70%)

CC(C)n1cnc2cc(-c3ccc4c(c3)N([C@H]3C[C@@H](N5CCCCC5)C3)C(=O)C43CCN(C(=O)C4CCN(C(=O)CN5CCN(c6ccc(C7CCC(=O)NC7=O)cn6)CC5)CC4)CC3)nc(Nc3ccncc3F)c21 (mixture of isomers) [Example 96, (3RS)-3-{6-[4-(2-{4-[(6-{4-[(3-fluoropyridin-4-yl)amino]-3-(propan-2-yl)-3H-imidazo[4,5-c]pyridin-6-yl}-2-oxo-1-[(1S,3S)-3-(piperidin-1-yl)cyclobutyl]-1,2-dihydrospiro[indole-3,4′-piperidin]-1′-yl)carbonyl]piperidin-1-yl}-2-oxoethyl)piperazin-1-yl]pyridin-3-yl}piperidine-2,6-dione]
DC50: 100 to 500 nM
Dmax [1]: 70 to 85%

CC(C)n1cnc2cc(-c3ccc4c(c3)N([C@H]3C[C@@H](N5CCCCC5)C3)C(=O)C43CCN(C(=O)C4CCN(C[C@H]5CC[C@H](C(=O)N6CCc7cc(C8CCC(=O)NC8=O)ccc7C6)CC5)CC4)CC3)nc(Nc3ccccc3F)c21 (mixture of isomers) [Example 46]
DC50: 100 to 500 nM
Dmax [1]: > 85%

CC(C)n1cnc2cc(-c3ccc4c(c3)N([C@H]3C[C@@H](N5CCCCC5)C3)C(=O)C43CCN(C(=O)[C@@H]4CCN(C(=O)[C@H]5CC[C@H](Nc6cccc(C7CCC(=O)NC7=O)n6)CC5)C4)CC3)nc(Nc3ccccc3F)c21 (mixture of isomers) [Example 8, (3RS)-3-(6-{1[(1R,4R)-4-[(3R)-3-[(6-{4-[(2-fluorophenyl)amino]-3-(propan-2-yl)-3H-imidazo[4,5-c]pyridin-6-yl}-2-oxo-1-[(1S,3S)-3-(piperidin-1-yl)cyclobutyl]-1,2-dihydrospiro[indole-3,4′-piperidin]-1′-yl)carbonyl]pyrrolidine-1-carbonyl]cyclohexyl]amino}pyridin-2-yl)piperidine-2,6-dione]
DC50: 500 to 1000 nM
Dmax [1]: 70 to 85%
